In article PMC6375636, “Monotherapy with a low-dose lipopeptide HIV fusion inhibitor maintains long-term viral suppression in rhesus macaques” (PLoS Pathogens, 2019):
Where two headings read alike, the source gives them in different places. Peptide text beside a SMILES is read from it. * marks the point of attachment. Stearoyl = CCCCCCCCCCCCCCCCCC(=O)*

Experiments:
HIV-1HXB2 Env = target: T1, HIV-1HXB2 Env (Human immunodeficiency virus type 1 group M subtype B, UniProt P04578); test: HIV-1HXB2 Env-mediated cell-cell fusion (HL2/3 effector, TZM-bl target, luciferase reporter); type: cell-based
T1 construct: HL2/3 cells, which stably express high levels of Env, Gag, Tat, Rev, and Nef proteins of the integrated HIV-1 molecular clone HXB2/3gpt; host or cells: HL2/3 cells (effector), cocultured with TZM-bl target cells
T1 sequence (P04578 512-856): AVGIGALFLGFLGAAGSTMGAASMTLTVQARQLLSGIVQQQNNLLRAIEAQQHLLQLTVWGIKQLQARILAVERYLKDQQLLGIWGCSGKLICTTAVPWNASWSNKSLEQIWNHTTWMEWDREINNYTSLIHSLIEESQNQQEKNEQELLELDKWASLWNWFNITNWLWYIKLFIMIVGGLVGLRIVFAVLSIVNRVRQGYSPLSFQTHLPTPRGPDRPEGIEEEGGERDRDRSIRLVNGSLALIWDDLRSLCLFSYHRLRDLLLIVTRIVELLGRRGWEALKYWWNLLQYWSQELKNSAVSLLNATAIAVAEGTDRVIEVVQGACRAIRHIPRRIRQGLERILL
Summary of the method: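 TZM-bl target cells (1 x 10^4/well, plated overnight) were cocultured for 6 h at 37°C with HL2/3 effector cells (3 x 10^4/well) plus graded inhibitor concentrations. Fusion was read as tat-driven LTR luciferase activity.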

[1] = system: HIV-1NL4-3(D36G) pseudovirus; type: cell-based
Summary of the method: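 Env-pseudotyped luciferase reporter viruses (pSG3Δenv backbone) made in HEK293T cells. 3-fold inhibitor dilutions preincubated 1 h at room temperature with 100 TCID50 virus before infection. Inhibition read as luciferase activity.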

[2] = system: NL4-3G36S/V38M pseudovirus; type: cell-based, HIV-1; settings: T-20 resistant, mean ± SD of 3 assays in triplicate
Description: (§1) The inhibitory activities of inhibitors against HIV-1 pseudoviruses and replication-competent isolates were measured as described previously. Briefly, HIV-1 pseudoviruses were generated via the cotransfection of HEK293T cells with an Env-expressing plasmid and a backbone plasmid that encodes Env-defective, luciferase-expressing HIV-1 genome (pSG3Δenv). Viral stocks of replication-competent HIV-1 isolates were generated by transfecting viral molecular clones into HEK293T cells. […] Inhibitors were prepared in 3-fold dilutions, mixed with 100 TCID50 of a virus, and then incubated for 1 h at room temperature. […] Luciferase activity was measured as described above.

NL4-3I37T pseudovirus = type: cell-based, HIV-1; settings: T-20 resistant, mean ± SD of 3 assays in triplicate
Description: as §1

[3] = system: NL4-3I37T/N43K pseudovirus; type: cell-based, HIV-1; settings: T-20 resistant, mean ± SD of 3 assays in triplicate
Description: as §1

NL4-3N43K pseudovirus = type: cell-based, HIV-1; settings: T-20 resistant, mean ± SD of 3 assays in triplicate
Description: as §1

NL4-3Q40H pseudovirus = type: cell-based, HIV-1; settings: T-20 resistant, mean ± SD of 3 assays in triplicate
Description: as §1

NL4-3V38A pseudovirus = type: cell-based, HIV-1; settings: T-20 resistant, mean ± SD of 3 assays in triplicate
Description: as §1

NL4-3V38M pseudovirus = type: cell-based, HIV-1; settings: T-20 resistant, mean ± SD of 3 assays in triplicate
Description: as §1

SHIVSF162P3 = test: Therapeutic efficacy in chronically SHIV-infected rhesus monkeys; type: in vivo, Chinese rhesus macaques
[4] = rat, in vivo, sc, 6 mg/kg
[5] = Rat IV, 6 mg/kg, n = 6; serum, LC-MS/MS, non-compartmental
in vivo = settings: Sprague-Dawley, rat, 6 mg/kg

SMILES: CCCCCCCCCCCCCCCCCC(=O)NCCCC[C@H](NC(=O)[C@H](CCC(=O)O)NC(=O)[C@H](CC(C)C)NC(=O)[C@H](CCCCN)NC(=O)[C@H](CCCCN)NC(=O)[C@H](CC(C)C)NC(=O)[C@H](CCC(=O)O)NC(=O)[C@H](CCC(=O)O)NC(=O)[C@H](CCC(=O)O)NC(=O)[C@H](CC(N)=O)NC(=O)[C@H](CCCCN)NC(=O)[C@H](CCCCN)NC(=O)[C@H](CCC(N)=O)NC(=O)[C@H](CCC(N)=O)NC(=O)[C@H](CCC(=O)O)NC(=O)[C@H](CCC(=O)O)NC(=O)[C@H](C)NC(=O)[C@H](CCCCN)NC(=O)[C@H](CCCCN)NC(=O)[C@H](CC(C)C)NC(=O)[C@H](CC(C)C)NC(=O)[C@H](CCC(=O)O)NC(=O)[C@H](CCC(=O)O)NC(=O)[C@@H](NC(=O)[C@H](CCCCN)NC(=O)[C@H](CCC(N)=O)NC(=O)[C@H](CCC(=O)O)NC(=O)[C@H](Cc1c[nH]c2ccccc12)NC(C)=O)[C@@H](C)CC)C(N)=O [LP-80] (Ac-WEQKIEELLKKAEEQQKKNEEELKKLEK(Stearoyl)-NH2)
- IC50 (HIV-1HXB2 Env): 12.6 pM
- IC50 ([1]; Fig 1, NL4-3(D36G) pseudovirus, mean ± SD of three assays in triplicate, read-out: Anti-HIV activity (IC50, pM) NL4-3 entry): 1.62 pM
- IC50 ([1]; Table 4, NL4-3D36G, T-20 sensitive, mean ± SD of 3 assays in triplicate, value in parentheses behind the bound, read-out: IC50): < 10 pM
- IC50 [2]: 70 ± 10 pM
- IC50 (NL4-3I37T pseudovirus): 50 pM
- IC50 [3]: 3790 ± 50 pM
- IC50 (NL4-3N43K pseudovirus): 250 ± 20 pM
- IC50 (NL4-3Q40H pseudovirus): 130 ± 20 pM
- IC50 (NL4-3V38A pseudovirus): 230 ± 30 pM
- IC50 (NL4-3V38M pseudovirus): 130 ± 20 pM
- Plasma viral load (SHIVSF162P3; 1st treatment, SC 3 mg/kg once daily, monkeys K3 and K5, 8 days after treatment, detection limit 100 copies/ml): declined to below the detection limit
- Viral replication during treatment (SHIVSF162P3; 1st treatment, SC 3 mg/kg once every 4 days for 4 weeks, five monkeys): fully controlled
- Viral rebound during treatment (SHIVSF162P3; 2nd treatment, SC 3 mg/kg twice weekly for 6 months): no viral rebound was detected
- Plasma viral load after one injection (SHIVSF162P3; 2nd treatment, SC 3 mg/kg twice weekly, all five monkeys, day 4, before: mean 4.5 log10 RNA copies/ml): below the detection limit
- PBMC vDNA load (SHIVSF162P3; 2nd treatment, monkeys K1, K2, K4, K5, detection limit 100 copies/μg total DNA): undetectable levels
- Time to viral load rebound after LP-80 was stopped (SHIVSF162P3; after 1st treatment, all treated monkeys): 10 to 21 days
- Time to virus rebound after LP-80 cessation (SHIVSF162P3; after 2nd treatment, four monkeys (K1 to K4)): 14 to 28 days
- Viral load after LP-80 withdrawal (SHIVSF162P3; after 2nd treatment, monkey K5, 2 months after withdrawal): remained undetectable
- Mean PBMC vDNA load (SHIVSF162P3; after a 2-month treatment (2nd treatment), declined from 3.7, quantitative PCR): 2.3 log10 vDNA copies/μg total DNA
- Vd/F [4]: 0.535 ± 0.251 L/kg
- Cl_F_obs/Cl_obs [5]: 0.3552 ± 0.0563 mL/min/kg
- Injection site reactions (ISRs) (SC 3 mg/kg during the treatment): did not cause significant injection site reactions
- TG (after 1st treatment (DPI 263), before (DPI 191) 0.58 ± 0.14): 0.51 ± 0.07 mmol/L
- IgA (after 1st treatment (DPI 263), before (DPI 191) 0.93 ± 0.33): 1.05 ± 0.12 g/L
- IgM (after 1st treatment (DPI 263), before (DPI 191) 1.28 ± 0.6): 1.12 ± 0.56 g/L
- LDL-C (after 1st treatment (DPI 263), before (DPI 191) 1.73 ± 0.44): 1.56 ± 0.37 mmol/L
- Ca (after 1st treatment (DPI 263), before (DPI 191) 2.36 ± 0.11): 2.4 ± 0.06 mmol/L
- HDL-C (after 1st treatment (DPI 263), before (DPI 191) 2.46 ± 0.07): 1.96 ± 0.26 mmol/L
- UA (after 1st treatment (DPI 263), before (DPI 191) 3.08 ± 0.61): 3.25 ± 0.54 µmol/L
- GLU (after 1st treatment (DPI 263), before (DPI 191) 4.32 ± 0.32): 5.02 ± 0.98 mmol/L
- CHO (after 1st treatment (DPI 263), before (DPI 191) 4.42 ± 0.19): 3.90 ± 0.53 mmol/L
- ALP (after 1st treatment (DPI 263), before (DPI 191) 4.6 ± 1.52): 4.2 ± 1.3 U/L
- K (after 1st treatment (DPI 263), before (DPI 191) 4.62 ± 0.13): 4.56 ± 0.18 mmol/L
- TBIL (after 1st treatment (DPI 263), before (DPI 191) 6.11 ± 1.57): 5.52 ± 0.82 µmol/L
- IgG (after 1st treatment (DPI 263), before (DPI 191) 7.12 ± 0.72): 8.6 ± 1.74 g/L
- GGT (after 1st treatment (DPI 263), before (DPI 191) 7.4 ± 1.82): 9.2 ± 3.83 U/L
- UN (after 1st treatment (DPI 263), before (DPI 191) 8.14 ± 2): 8.38 ± 0.74 mmol/L
- AST (after 1st treatment (DPI 263), before (DPI 191) 32.4 ± 3.29): 30.8 ± 3.27 U/L
- CK (after 1st treatment (DPI 263), before (DPI 191) 46.4 ± 9.81): 56.6 ± 10.01 U/L
- TP (after 1st treatment (DPI 263), before (DPI 191) 74 ± 4.53): 71.26 ± 1.76 g/L
- TG (after 2nd treatment (DPI 508), before (DPI 325) 0.67 ± 0.13): 0.62 ± 0.21 mmol/L
- IgA (after 2nd treatment (DPI 508), before (DPI 325) 0.76 ± 0.31): 0.86 ± 0.18 g/L
- IgM (after 2nd treatment (DPI 508), before (DPI 325) 1.41 ± 0.29): 1.49 ± 0.29 g/L
- P (after 2nd treatment (DPI 508), before (DPI 325) 1.74 ± 0.19): 1.29 ± 0.24 mmol/L
- HDL-C (after 2nd treatment (DPI 508), before (DPI 325) 2.46 ± 0.31): 2.66 ± 0.45 mmol/L
- UA (after 2nd treatment (DPI 508), before (DPI 325) 2.54 ± 0.28): 2.54 ± 0.73 µmol/L
- CHO (after 2nd treatment (DPI 508), before (DPI 325) 3.87 ± 0.44): 4.02 ± 0.51 mmol/L
- K (after 2nd treatment (DPI 508), before (DPI 325) 4.7 ± 0.2): 4.64 ± 0.26 mmol/L
- TBIL (after 2nd treatment (DPI 508), before (DPI 325) 5.92 ± 0.9): 5.52 ± 0.9 µmol/L
- UN (after 2nd treatment (DPI 508), before (DPI 325) 9.34 ± 1.26): 7.99 ± 0.92 mmol/L
- ALT (after 2nd treatment (DPI 508), before (DPI 325) 12.8 ± 3.27): 13.2 ± 2.86 U/L
- AST (after 2nd treatment (DPI 508), before (DPI 325) 27.2 ± 3.11): 31.4 ± 4.45 U/L
- CK (after 2nd treatment (DPI 508), before (DPI 325) 54.6 ± 10.74): 55.4 ± 14.19 U/L
- Systemic toxicities (blood biochemical parameters, CD4+ and CD8+ T lymphocytes monitored): No systemic toxicities were observed
- ALP (rhesus monkey, in vivo): 7.4 ± 2.07 U/L
- ALT (rhesus monkey, in vivo): 15.8 ± 3.27 U/L
- Ca (rhesus monkey, in vivo): 2.19 ± 0.03 mmol/L
- GGT (rhesus monkey, in vivo): 10.4 ± 1.95 U/L
- IgG (rhesus monkey, in vivo): 8.52 ± 1.32 g/L
- LDH (rhesus monkey, in vivo): 262.8 ± 48.26 U/L
- LDL-C (rhesus monkey, in vivo): 1.32 ± 0.32 mmol/L
- P (rhesus monkey, in vivo): 0.98 ± 0.07 mmol/L
- TP (rhesus monkey, in vivo): 71.15 ± 2.86 g/L
- level at 72 h (in vivo): ~7 ng/mL
- AUC(0-inf) (in vivo; iv): 288 ± 49.4 µg·h/mL
- AUC(0-t) (in vivo; iv): 288 ± 49.4 µg·h/mL
- Cmax (in vivo; iv): 53300 ± 10600 ng/mL
- MRT (in vivo; iv): 7.53 ± 0.85 h
- Tmax (in vivo; iv): 0.08 h
- Vd (in vivo; iv): 0.183 ± 0.0216 L/kg
- AUC(0-inf) (in vivo; sc): 114 ± 33.6 µg·h/mL
- AUC(0-t) (in vivo; sc): 114 ± 33.6 µg·h/mL
- CL/F (in vivo; sc): 0.958 mL/min/kg
- Cmax (in vivo; sc): 7650 ± 1580 ng/mL
- MRT (in vivo; sc): 9.73 ± 1.11 h
- Tmax (in vivo; sc): 4 ± 2.19 h
